Measurements published in patent publication US12090225B2 (Avalyn Pharma Inc., priority 2018, dated 2024).
Where two headings read alike, the source gives them in different places. One block for each compound: values may come before it.

Tests used:
[1] = Apparent solubility of nintedanib HBr laboratory scale batches; type: physicochemical
From the text: During this process, a new polymorphic form was identified (pattern X)

[2] = Pattern stability screen of potential salts (40° C./75% RH, XRPD); type: physicochemical
[3] = Aqueous solubility assessment of salts; type: physicochemical
[4] = Human inhaled dose projection vs Ofev 150 mg oral; details: 0.42 mg inhaled vs Ofev 150 mg oral
[5] = pH-solubility of nintedanib HBr Pattern 4 and Pattern X; type: physicochemical; details: distilled water, over 48 hours, UV/vis 390 nm, unit assumed
Protocol: The solubility of Pattern 4 and Pattern X at various pH values were determined by UV/vis spectrophotometry. Excess Pattern 4 and Pattern X HBr salts were added to distilled water, vortexed at high speed and the pH was adjusted to the target value by adding 1N HCl or 1N NaOH. The test solutions were mixed on a magnetic stirrer for over 48 hours, then filtered through a 0.22 μm nylon membrane syringe filter and analyzed by uv/vis spectrophotometry at 390 nm. […] The solubility of both polymorphic forms decreases with increasing pH. Both polymorphic forms have similar solubility profile.

[6] = Temperature-solubility of nintedanib HBr Pattern 4 and Pattern X; type: physicochemical; details: distilled water, over 48 hours
Protocol: During this time period, the samples were periodically taken out of the storage, vortexed, and returned to storage condition. At the end of the incubation period, the test solutions were filtered through a 0.22 μm nylon membrane syringe filter and analyzed by uv/vis spectrophotometry (at 390 nm) for drug concentration. Table 29 summarizes the solubility of both salt forms as a function of temperature. The solubility of both polymorphic forms increases with increasing temperature. Both polymorphic forms have similar solubility profiles.

[7] = Inhaled pharmacokinetics of nintedanib salt forms (intratracheal); type: in vivo, C57BL/6 mice; details: C57BL/6 mice; for AUC 0-last / Elimination half-life (alpha-phase): 1.0 mg/kg IT; for Cmax: 1.0 mg/kg IT (base equivalent)
[8] = Disproportionation/hydration studies (pH, XRPD pattern); type: physicochemical
From the text: No XRPD data could be compiled on the hydration or disproportionation of the salt due to the high solubility in water and acetone/water mixtures.
The salt only remained Pattern 1 at 0.3 aw. New patterns 6 and 7 are likely hydrated due to the high water activity conditions for production.

[9] = Dynamic Vapour Sorption (DVS) hygroscopicity; type: physicochemical; details: for DVS mass uptake at 90% RH: 25° C., uptake from input material; for Hygroscopicity: DVS
Protocol: Dynamic Vapour Sorption (DVS). Approximately, 10 mg of sample was placed into a mesh vapour sorption balance pan and loaded into a DVS-1 or DVS Advantage dynamic vapour sorption balance by Surface Measurement Systems. The sample was subjected to a ramping profile from 40-90% relative humidity (RH) at 10% increments, maintaining the sample at each step until a stable weight had been achieved (dm/dt 0.004%, minimum step length 30 minutes, maximum step length 500 minutes) at 25° C. After completion of the sorption cycle, the sample was dried using the same procedure to 0% RH and then a second sorption cycle back to 40% RH. Two cycles were performed. The weight change during the sorption/desorption cycles were plotted, allowing for the hygroscopic nature of the sample to be determined. XRPD analysis was then carried out on any solid retained.

[10] = 7 day stability testing of salts (40° C./75% RH, 80° C., ambient light; HPLC purity, XRPD); type: physicochemical; details: for XRPD pattern after 7 day stability testing: listed as phosphate salt
Protocol: High Performance Liquid Chromatography-Ultraviolet Detection (HPLC-UV): Instrument: Dionex Ultimate 3000; Column: Acquity CSH C18 100 mm×2.1 mm 1.7 μm; Column Temperature: 50° C.; Autosampler Temperature: Ambient; UV wavelength: 210 nm; Injection Volume: 4 μL; Flow Rate: 0.6 mL/min; Mobile Phase A: 0.1% formic acid in water; Mobile Phase B: 0.1% formic acid in acetonitrile. The HPLC method used the gradient in Table 2.
FT-IR appeared to be consistent with the structure. […] The material was physically stable to changes in temperature and humidity when stored for one week.
A new, poorly crystalline pattern was produced when stored at 40° C./75% RH—Pattern 4.
Purity of these materials remained unchanged (as shown in Table) apart from the sample stored at ambient light, where a 0.5% drop in purity was observed.

[11] = Inhaled pharmacokinetics of fixed combination nintedanib esylate and pirfenidone; type: in vivo, C57BL/6 mice; details: 10.0 mg/kg each IT; for half-life: read-out: Elimination half-life (alpha-phase)
Protocol: Plasma and lung tissue samples were taken 2, 5, 10, 20, 40 min and 1, 2, and 4 hours post dose. Nintedanib was extracted and quantitated as μg/mL plasma and μg/gram lung tissue.

[12] = Water Activity 0.3 (acetone/water)
[13] = Water Activity 0.6 (acetone/water)
[14] = Water Activity 0.9 (acetone/water)
[15] = female, C57BL/6, mouse, inhaled or intranasal, Lung (whole lung homogenate)
[16] = female, C57BL/6, mouse, inhaled or intranasal, Plasma

- Apparent Solubility [1]: 1020 µg/mL
Compound: Br.COC(=O)c1ccc2c(c1)NC(=O)C2=C(Nc1ccc(N(C)C(=O)CN2CCN(C)CC2)cc1)c1ccccc1 [AP069]

- Apparent Solubility [1]: 1950 µg/mL
Compound: Br.COC(=O)c1ccc2c(c1)NC(=O)C2=C(Nc1ccc(N(C)C(=O)CN2CCN(C)CC2)cc1)c1ccccc1 [AP152]

- Apparent Solubility [1]: 2050 µg/mL
Compound: Br.COC(=O)c1ccc2c(c1)NC(=O)C2=C(Nc1ccc(N(C)C(=O)CN2CCN(C)CC2)cc1)c1ccccc1 [AP177d]

- Apparent Solubility [1]: 1030 µg/mL
Compound: Br.COC(=O)c1ccc2c(c1)NC(=O)C2=C(Nc1ccc(N(C)C(=O)CN2CCN(C)CC2)cc1)c1ccccc1 [AP177w]

- Apparent Solubility [1]: 1940 µg/mL
Compound: Br.COC(=O)c1ccc2c(c1)NC(=O)C2=C(Nc1ccc(N(C)C(=O)CN2CCN(C)CC2)cc1)c1ccccc1 [AP178d]

- Apparent Solubility [1]: 1010 µg/mL
Compound: Br.COC(=O)c1ccc2c(c1)NC(=O)C2=C(Nc1ccc(N(C)C(=O)CN2CCN(C)CC2)cc1)c1ccccc1 [AP178w]

- XRPD pattern after 72 hrs 40° C./75% RH ([2]; Initial pattern 1): 1(FB)
- XRPD pattern after 72 hrs 40° C./75% RH ([2]; Initial pattern 2): 1
Compound: CC(=O)O [Acetate]

- pH (aqueous solubility measurement) ([3]; primary screen samples): 6.41
- XRPD pattern after 72 hrs 40° C./75% RH ([2]; Initial pattern 1): 1
- XRPD pattern after 72 hrs 40° C./75% RH ([2]; Initial pattern 2): 2(MU)
Compound: O=C(O)/C=C/C(=O)O [Fumarate]

- XRPD pattern after 72 hrs 40° C./75% RH ([2]; Initial pattern 1): 1
Compound: N[C@@H](CC(=O)O)C(=O)O [L-Aspartic acid]

- AUC 0-last ([11]; Lung (whole lung homogenate)): 5.2 mg·h/kg
- Cmax [11, 15]: 279000 ng/g
- half-life [11, 15]: 0.7 min
- AUC(0-t) [11, 16]: 3800 ng·h/mL
- Cmax [11, 16]: 7900 ng/mL
- half-life [11, 16]: 8.9 min
Compound: Cc1ccc(=O)n(-c2ccccc2)c1 [Pirfenidone]

- XRPD pattern after 72 hrs 40° C./75% RH ([2]; Initial pattern 1): 1
- XRPD pattern after 72 hrs 40° C./75% RH ([2]; Initial pattern 2): 2
Compound: Maleic acid

- Solubility (aqueous) [3]: <625 µg/mL
- pH (aqueous solubility measurement) [3]: 5.51
- XRPD pattern after 72 hrs 40° C./75% RH ([2]; Initial pattern 1): 2
- XRPD pattern after 72 hrs 40° C./75% RH ([2]; Initial pattern 2): 2
Compound: Saccharin

Continued, compound first:

Compound: Br.COC(=O)c1ccc2c(c1)NC(=O)C2=C(Nc1ccc(N(C)C(=O)CN2CCN(C)CC2)cc1)c1ccccc1 [AP018]
- Apparent Solubility [1]: 2040 µg/mL

Compound: Br.COC(=O)c1ccc2c(c1)NC(=O)C2=C(Nc1ccc(N(C)C(=O)CN2CCN(C)CC2)cc1)c1ccccc1 [AP036]
- Apparent Solubility [1]: 970 µg/mL

Compound: Br.COC(=O)c1ccc2c(c1)NC(=O)C2=C(Nc1ccc(N(C)C(=O)CN2CCN(C)CC2)cc1)c1ccccc1 [AP064]
- Apparent Solubility [1]: 1960 µg/mL

Compound: Br.COC(=O)c1ccc2c(c1)NC(=O)/C2=C(\Nc1ccc(N(C)C(=O)CN2CCN(C)CC2)cc1)c1ccccc1 [AP143]
- Apparent Solubility [1]: 960 µg/mL

Compound: COC(=O)c1ccc2c(c1)NC(=O)/C2=C(\Nc1ccc(N(C)C(=O)CN2CCN(C)CC2)cc1)c1ccccc1.O=S(=O)(O)CCO [HESA]
- XRPD pattern after 72 hrs 40° C./75% RH ([2]; Initial pattern 1): 2
- XRPD pattern after 72 hrs 40° C./75% RH ([2]; Initial pattern 2): 2

Compound: COC(=O)c1ccc2c(c1)NC(=O)/C2=C(\Nc1ccc(N(C)C(=O)CN2CCN(C)CC2)cc1)c1ccccc1 [Inhaled nintedanib]
- % Pharmacokinetics (inhaled compared to oral), AUC ([4]; lung): 1047%
- % Pharmacokinetics (inhaled compared to oral), Cmax ([4]; lung): 2600%
- % Pharmacokinetics (inhaled compared to oral), AUC ([4]; plasma): 100%
- % Pharmacokinetics (inhaled compared to oral), Cmax ([4]; plasma): 83%

Compound: COC(=O)c1ccc2c(c1)NC(=O)/C2=C(\Nc1ccc(N(C)C(=O)CN2CCN(C)CC2)cc1)c1ccccc1.CS(=O)(=O)O [MSA]
- XRPD pattern after 72 hrs 40° C./75% RH ([2]; Initial pattern 1): 1
- XRPD pattern after 72 hrs 40° C./75% RH ([2]; Initial pattern 2): 1

Compound: Br.COC(=O)c1ccc2c(c1)NC(=O)/C2=C(\Nc1ccc(N(C)C(=O)CN2CCN(C)CC2)cc1)c1ccccc1 [Nintedanib HBr Pattern 4, Nintedanib hydrobromide, XRPD Pattern 4]
- solubility ([5]; pH 3.1): 2010 µg/mL
- solubility ([5]; pH 3.9): 1470 µg/mL
- solubility ([5]; pH 4.7): 1380 µg/mL
- solubility ([5]; pH 5.3): 1070 µg/mL
- Nintedanib HBr Solubility ([6]; 5° C.): 790 µg/mL
- Nintedanib HBr Solubility ([6]; 22° C.): 1380 µg/mL
- Nintedanib HBr Solubility ([6]; 40° C.): 3200 µg/mL

Compound: Br.COC(=O)c1ccc2c(c1)NC(=O)/C2=C(\Nc1ccc(N(C)C(=O)CN2CCN(C)CC2)cc1)c1ccccc1 [Nintedanib HBr Pattern X, Nintedanib hydrobromide, XRPD Pattern X]
- solubility ([5]; pH 3.1): 1860 µg/mL
- solubility ([5]; pH 3.9): 1720 µg/mL
- solubility ([5]; pH 4.4): 1490 µg/mL
- solubility ([5]; pH 5.1): 1400 µg/mL
- Nintedanib HBr Solubility ([6]; 5° C.): 650 µg/mL
- Nintedanib HBr Solubility ([6]; 22° C.): 1490 µg/mL
- Nintedanib HBr Solubility ([6]; 40° C.): 3410 µg/mL

Compound: Br.COC(=O)c1ccc2c(c1)NC(=O)/C2=C(\Nc1ccc(N(C)C(=O)CN2CCN(C)CC2)cc1)c1ccccc1 [Nintedanib bromide]
- AUC 0-last ([7]; lung (whole lung homogenate)): 51.2 mg·h/kg
- Elimination half-life (alpha-phase) ([7]; lung (whole lung homogenate)): 4.1 min
- Cmax ([7]; plasma): 200 ng/mL
- AUC 0-last ([7]; plasma): 200 ng·h/mL
- Elimination half-life (alpha-phase) ([7]; plasma): 2.4 min

Compound: COC(=O)c1ccc2c(c1)NC(=O)/C2=C(\Nc1ccc(N(C)C(=O)CN2CCN(C)CC2)cc1)c1ccccc1.Cl [Nintedanib chloride]
- AUC 0-last ([7]; lung (whole lung homogenate)): 60.1 mg·h/kg
- Elimination half-life (alpha-phase) ([7]; lung (whole lung homogenate)): 3.9 min
- Cmax ([7]; plasma): 400 ng/mL
- AUC 0-last ([7]; plasma): 200 ng·h/mL
- Elimination half-life (alpha-phase) ([7]; plasma): 1.7 min

Compound: COC(=O)c1ccc2c(c1)NC(=O)/C2=C(\Nc1ccc(N(C)C(=O)CN2CCN(C)CC2)cc1)c1ccccc1.O=P(O)(O)O.O=P(O)(O)O [Phosphate]
- pH Post-Agitation [8, 12]: 2.68
- pH Pre-Agitation [8, 12]: 3.08
- pH Post-Agitation [8, 13]: 2.52
- pH Pre-Agitation [8, 13]: 2.60
- pH Post-Agitation [8, 14]: 2.35
- pH Pre-Agitation [8, 14]: 2.34
- pH Post-Agitation ([8]; Water Activity 1.0 (water)): 1.78
- pH Pre-Agitation ([8]; Water Activity 1.0 (water)): 2.75
- pH at 6 h ([3]; salt in water, after agitation): 3.00
- pH at 18 h ([3]; salt in water, after agitation): 2.11
- Initial pH ([3]; salt in water, solubility assessment): 3.43
- XRPD pattern after 72 hrs 40° C./75% RH ([2]; Initial pattern 1): 1
- XRPD pattern after 72 hrs 40° C./75% RH ([2]; Initial pattern 2): 2
- DVS mass uptake at 90% RH [9]: further 10.6% uptake up
- DVS mass uptake at 90% RH ([9]; listed as phosphate salt): ca. 10.6%
- Hygroscopicity [9]: Hygroscopic
- Hygroscopicity ([9]; listed as phosphate salt): hygroscopic
- Purity (%) ([10]; 40° C./75% RH, 7 day stability testing): 99.8%
- XRPD pattern after 7 day stability testing ([10]; 40° C./75% RH): Pattern 4
- XRPD pattern after 7 day stability testing ([10]; 80° C. and ambient conditions/light): remain Pattern 3
- Purity (%) ([10]; 80° C., 7 day stability testing): 99.2%
- Purity (%) ([10]; Ambient, 7 day stability testing): 99.6%
- Purity (%) ([10]; Input): 99.9%

Compound: O=S(=O)(O)O [Sulfuric acid]
- XRPD pattern after 72 hrs 40° C./75% RH ([2]; Initial pattern 1): 1
- XRPD pattern after 72 hrs 40° C./75% RH ([2]; Initial pattern 2): 1
- XRPD pattern after 72 hrs 40° C./75% RH ([2]; Initial pattern 3): 3
- XRPD pattern after 72 hrs 40° C./75% RH ([2]; Initial pattern 4): 3
